Measured values as given in ChEMBL document CHEMBL1909046, “DrugMatrix in vitro pharmacology data”.

Assays:
[1] = target: Delta-type opioid receptor (Homo sapiens, UniProt P41143); type: cell membranes, HEK293, Membrane; conditions: hek293; note: in other assays of this panel Not Active means under 50% inhibition at 10 µM
[2] = DRUGMATRIX: Glutamate, NMDA, Agonism radioligand binding (ligand: [3H] CGP-39653); type: cell membranes, Rattus norvegicus, Wistar, Cerebral cortex, Membrane; conditions: Not Active = under 50% inhibition at 10 µM
Melanocortin receptor 5 = Melanocortin receptor 5 (Homo sapiens, UniProt P33032); type: cell membranes, HEK293, Membrane; conditions: hek293; note: in other assays of this panel Not Active means under 50% inhibition at 10 µM
Chain of Melanocortin receptor 5 (P33032 whole entry): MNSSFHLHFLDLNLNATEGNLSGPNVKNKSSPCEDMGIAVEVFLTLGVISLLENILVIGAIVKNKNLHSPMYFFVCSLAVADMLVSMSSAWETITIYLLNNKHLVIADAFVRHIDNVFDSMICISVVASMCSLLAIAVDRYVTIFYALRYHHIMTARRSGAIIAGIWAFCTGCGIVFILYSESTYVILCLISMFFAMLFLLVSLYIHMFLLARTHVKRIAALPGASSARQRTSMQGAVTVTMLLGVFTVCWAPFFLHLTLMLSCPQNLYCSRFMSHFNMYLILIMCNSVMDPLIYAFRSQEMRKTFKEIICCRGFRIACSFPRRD

[3] = target: Tyrosine-protein kinase Fyn (Homo sapiens, UniProt P06241); test: biochemical; type: cell-based, Insect cells; conditions: insect cells;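 note: enzymatic inhibition of Fyn kinase activity measured with Poly(Glu:Tyr) as the phosphorylation substrate; in other assays of this panel Not Active means under 50% inhibition at 10 µM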
Chain of Tyrosine-protein kinase Fyn (P06241 whole entry): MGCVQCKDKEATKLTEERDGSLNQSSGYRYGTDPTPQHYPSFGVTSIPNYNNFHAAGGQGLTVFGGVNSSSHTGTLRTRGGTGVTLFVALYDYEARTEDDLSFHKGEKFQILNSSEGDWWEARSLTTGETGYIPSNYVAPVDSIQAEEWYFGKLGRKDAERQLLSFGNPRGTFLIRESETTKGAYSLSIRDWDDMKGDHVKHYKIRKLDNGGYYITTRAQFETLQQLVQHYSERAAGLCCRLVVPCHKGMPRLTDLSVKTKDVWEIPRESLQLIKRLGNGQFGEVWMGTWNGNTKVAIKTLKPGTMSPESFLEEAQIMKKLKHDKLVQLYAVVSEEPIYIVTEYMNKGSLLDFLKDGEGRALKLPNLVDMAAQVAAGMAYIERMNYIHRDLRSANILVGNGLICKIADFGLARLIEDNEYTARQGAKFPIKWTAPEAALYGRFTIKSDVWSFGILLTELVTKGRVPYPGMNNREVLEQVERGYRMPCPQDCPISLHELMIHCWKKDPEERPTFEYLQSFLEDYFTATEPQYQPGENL

[4] = DRUGMATRIX: Platelet-Derived Growth Factor (PDGF) radioligand binding (ligand: [125I] PDGF); type: cell-based; conditions: nih3t3; Not Active = under 50% inhibition at 10 µM
[5] = target: 5-hydroxytryptamine receptor 6 (Homo sapiens, UniProt P50406); type: cell membranes, HeLa, Membrane; conditions: hela; note: in other assays of this panel Not Active means under 50% inhibition at 10 µM
Chain of 5-hydroxytryptamine receptor 6 (P50406 whole entry): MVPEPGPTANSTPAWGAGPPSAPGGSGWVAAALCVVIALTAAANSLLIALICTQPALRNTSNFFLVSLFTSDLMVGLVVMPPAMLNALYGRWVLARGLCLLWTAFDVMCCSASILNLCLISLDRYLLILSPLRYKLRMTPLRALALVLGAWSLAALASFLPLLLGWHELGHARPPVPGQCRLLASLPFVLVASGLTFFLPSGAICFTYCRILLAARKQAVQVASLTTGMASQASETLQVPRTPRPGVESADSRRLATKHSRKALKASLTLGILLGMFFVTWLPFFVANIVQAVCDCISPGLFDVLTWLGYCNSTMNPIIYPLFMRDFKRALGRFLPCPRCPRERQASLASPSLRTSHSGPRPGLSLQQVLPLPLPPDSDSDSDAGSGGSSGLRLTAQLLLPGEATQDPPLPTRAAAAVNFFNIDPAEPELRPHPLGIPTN

[6] = target: T1, Muscarinic acetylcholine receptor M5 (Homo sapiens, UniProt P08912); type: cell membranes, Membrane; conditions: cho-k1; note: in other assays of this panel Not Active means under 50% inhibition at 10 µM
T1 sequence (P08912 whole entry): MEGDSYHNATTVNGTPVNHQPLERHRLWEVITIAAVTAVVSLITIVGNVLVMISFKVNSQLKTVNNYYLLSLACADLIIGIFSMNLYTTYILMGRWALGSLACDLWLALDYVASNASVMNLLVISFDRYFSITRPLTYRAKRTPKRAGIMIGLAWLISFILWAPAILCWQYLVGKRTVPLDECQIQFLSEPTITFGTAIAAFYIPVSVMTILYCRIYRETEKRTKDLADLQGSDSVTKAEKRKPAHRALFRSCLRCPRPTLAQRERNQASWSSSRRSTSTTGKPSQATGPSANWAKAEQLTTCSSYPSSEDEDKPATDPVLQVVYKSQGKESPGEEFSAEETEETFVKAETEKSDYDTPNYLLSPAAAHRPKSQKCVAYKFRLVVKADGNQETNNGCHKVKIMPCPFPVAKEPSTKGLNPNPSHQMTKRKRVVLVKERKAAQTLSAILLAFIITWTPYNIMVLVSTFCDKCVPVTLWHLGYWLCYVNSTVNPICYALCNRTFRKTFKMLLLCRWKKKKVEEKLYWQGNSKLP

Cytochrome P450 2D6 = Cytochrome P450 2D6 (Homo sapiens, UniProt P10635); conditions: bti-tn-5b1-4; note: in other assays of this panel Not Active means under 50% inhibition at 10 µM
Chain of Cytochrome P450 2D6 (P10635 whole entry): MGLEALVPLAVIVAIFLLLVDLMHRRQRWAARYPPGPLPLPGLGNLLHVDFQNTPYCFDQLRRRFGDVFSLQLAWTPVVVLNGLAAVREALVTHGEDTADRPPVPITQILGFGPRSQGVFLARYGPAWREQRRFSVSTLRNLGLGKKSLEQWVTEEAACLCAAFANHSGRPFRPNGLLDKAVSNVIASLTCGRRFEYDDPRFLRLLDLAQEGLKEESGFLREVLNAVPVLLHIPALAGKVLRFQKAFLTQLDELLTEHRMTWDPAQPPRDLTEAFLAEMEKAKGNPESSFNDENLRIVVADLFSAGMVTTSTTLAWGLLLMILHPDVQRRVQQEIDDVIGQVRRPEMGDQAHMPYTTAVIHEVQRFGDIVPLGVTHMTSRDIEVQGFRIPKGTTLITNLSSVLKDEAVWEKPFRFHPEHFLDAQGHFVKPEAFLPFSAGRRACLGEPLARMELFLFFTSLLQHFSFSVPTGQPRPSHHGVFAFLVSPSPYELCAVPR

Chain of Delta-type opioid receptor (P41143 whole entry): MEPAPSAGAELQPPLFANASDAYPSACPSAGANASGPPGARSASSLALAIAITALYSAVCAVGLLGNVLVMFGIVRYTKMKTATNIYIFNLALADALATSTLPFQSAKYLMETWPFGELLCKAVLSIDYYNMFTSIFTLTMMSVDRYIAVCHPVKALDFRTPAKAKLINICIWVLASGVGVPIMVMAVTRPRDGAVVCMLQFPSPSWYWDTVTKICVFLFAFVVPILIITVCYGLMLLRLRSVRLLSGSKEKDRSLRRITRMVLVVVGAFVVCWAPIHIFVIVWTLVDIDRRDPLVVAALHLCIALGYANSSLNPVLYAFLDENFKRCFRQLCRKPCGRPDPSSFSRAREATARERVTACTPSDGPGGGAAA

C=C(CC)C(=O)c1ccc(OCC(=O)O)c(Cl)c1Cl [ETHACRYNIC ACID]
Not Active: IC50 [1] | IC50 [2] | Ki [2] | IC50 (Melanocortin receptor 5) | IC50 [3] | IC50 [4] | Ki [4] | IC50 [5] | IC50 [6] | IC50 (Cytochrome P450 2D6) | Ki (Cytochrome P450 2D6)

CC(C(=O)O)c1ccc(-c2ccccc2)c(F)c1 (stereo not given) [FLURBIPROFEN]
Not Active: IC50 [1] | IC50 [2] | Ki [2] | IC50 (Melanocortin receptor 5) | IC50 [3] | IC50 [4] | Ki [4] | IC50 [5] | IC50 [6] | IC50 (Cytochrome P450 2D6) | Ki (Cytochrome P450 2D6)

COc1ccccc1OCC(O)COC(N)=O (stereo not given) [METHOCARBAMOL]
Not Active: IC50 [1] | IC50 [2] | Ki [2] | IC50 (Melanocortin receptor 5) | IC50 [3] | IC50 [4] | Ki [4] | IC50 [5] | IC50 [6] | IC50 (Cytochrome P450 2D6) | Ki (Cytochrome P450 2D6)

CC(C(=O)O)c1ccc(CC2CCCC2=O)cc1 (stereo not given) [LOXOPROFEN]
Not Active: IC50 [1] | IC50 [2] | Ki [2] | IC50 (Melanocortin receptor 5) | IC50 [3] | IC50 [4] | Ki [4] | IC50 [5] | IC50 [6] | IC50 (Cytochrome P450 2D6) | Ki (Cytochrome P450 2D6)

CCCCC1C(=O)N(c2ccccc2)N(c2ccccc2)C1=O [PHENYLBUTAZONE]
Not Active: IC50 [1] | IC50 [2] | Ki [2] | IC50 (Melanocortin receptor 5) | IC50 [3] | IC50 [4] | Ki [4] | IC50 [5] | IC50 [6] | IC50 (Cytochrome P450 2D6) | Ki (Cytochrome P450 2D6)

CCN[C@@H](C)Cc1cccc(C(F)(F)F)c1 [DEXFENFLURAMINE]
Not Active: IC50 [1] | IC50 [2] | Ki [2] | IC50 (Melanocortin receptor 5) | IC50 [3] | IC50 [4] | Ki [4] | IC50 [5] | IC50 [6] | IC50 (Cytochrome P450 2D6) | Ki (Cytochrome P450 2D6)

COc1ccccc1OCC(O)CO (stereo not given) [GUAIFENESIN]
Not Active: IC50 [1] | IC50 [2] | Ki [2] | IC50 (Melanocortin receptor 5) | IC50 [3] | IC50 [4] | Ki [4] | IC50 [5] | IC50 [6]

CCC(=O)O[C@H]1[C@H](O[C@@H]2[C@@H](C)[C@H](O[C@H]3C[C@@](C)(OC)[C@@H](O)[C@H](C)O3)[C@@H](C)C(=O)O[C@H](CC)[C@@](C)(O)[C@H](O)[C@@H](C)C(=O)[C@H](C)C[C@@]2(C)O)O[C@H](C)C[C@@H]1N(C)C [ERYTHROMYCIN PROPIONATE]
Not Active: IC50 [1] | IC50 [2] | Ki [2] | IC50 (Melanocortin receptor 5) | IC50 [3] | IC50 [4] | Ki [4] | IC50 [5] | IC50 [6] | IC50 (Cytochrome P450 2D6) | Ki (Cytochrome P450 2D6)

C=C1/C(=C\C=C2/CCC[C@]3(C)[C@@H]([C@H](C)CCCC(C)C)CC[C@@H]23)C[C@@H](O)C[C@@H]1O [ALFACALCIDOL]
Not Active: IC50 [1] | IC50 [2] | Ki [2] | IC50 (Melanocortin receptor 5) | IC50 [3] | IC50 [4] | Ki [4] | IC50 [5] | IC50 [6] | IC50 (Cytochrome P450 2D6) | Ki (Cytochrome P450 2D6)

CS(=O)(=O)OCCCCOS(C)(=O)=O [BUSULFAN]
Not Active: IC50 [1] | IC50 [2] | Ki [2] | IC50 (Melanocortin receptor 5) | IC50 [3] | IC50 [4] | Ki [4] | IC50 [5] | IC50 [6] | IC50 (Cytochrome P450 2D6) | Ki (Cytochrome P450 2D6)

C[C@]12CCC(=O)C=C1CC[C@@H]1[C@@H]2[C@@H](O)C[C@@]2(C)[C@H]1CC[C@]2(O)C(=O)CO [HYDROCORTISONE]
Not Active: IC50 [1] | IC50 [2] | Ki [2] | IC50 (Melanocortin receptor 5) | IC50 [3] | IC50 [4] | Ki [4] | IC50 [5] | IC50 [6] | IC50 (Cytochrome P450 2D6) | Ki (Cytochrome P450 2D6)

POLYVINYL ALCOHOL
Not Active: IC50 [1] | Ki [1] | IC50 [2] | Ki [2] | IC50 (Melanocortin receptor 5) | Ki (Melanocortin receptor 5) | IC50 [3] | Ki [3] | IC50 [4] | Ki [4] | IC50 [5] | Ki [5] | IC50 [6] | Ki [6] | IC50 (Cytochrome P450 2D6) | Ki (Cytochrome P450 2D6)

COBALT(II) ACETYLACETONATE
Not Active: IC50 [1] | Ki [1] | IC50 [2] | Ki [2] | IC50 (Melanocortin receptor 5) | Ki (Melanocortin receptor 5) | IC50 [3] | Ki [3] | IC50 [4] | Ki [4] | IC50 [5] | Ki [5] | IC50 [6] | Ki [6] | IC50 (Cytochrome P450 2D6) | Ki (Cytochrome P450 2D6)

Nc1nc(N)nc(NC2CC2)n1 [CYROMAZINE]
Not Active: IC50 [1] | IC50 [2] | Ki [2] | IC50 (Melanocortin receptor 5) | IC50 [3] | IC50 [4] | Ki [4] | IC50 [5] | IC50 [6] | IC50 (Cytochrome P450 2D6) | Ki (Cytochrome P450 2D6)

CN(C(=O)CCCOc1ccc2[nH]c(=O)ccc2c1)C1CCCCC1 [CILOSTAMIDE]
Not Active: IC50 [1] | IC50 [2] | Ki [2] | IC50 (Melanocortin receptor 5) | IC50 [3] | IC50 [4] | Ki [4] | IC50 [5] | IC50 [6] | IC50 (Cytochrome P450 2D6) | Ki (Cytochrome P450 2D6)

CC(C)(Oc1ccc(C2CC2(Cl)Cl)cc1)C(=O)O (stereo not given) [CIPROFIBRATE]
Not Active: IC50 [1] | IC50 [2] | Ki [2] | IC50 (Melanocortin receptor 5) | IC50 [3] | IC50 [4] | Ki [4] | IC50 [5] | IC50 [6] | IC50 (Cytochrome P450 2D6) | Ki (Cytochrome P450 2D6)

Cc1cn[nH]c1 [FOMEPIZOLE]
Not Active: IC50 [1] | IC50 [2] | Ki [2] | IC50 (Melanocortin receptor 5) | IC50 [3] | IC50 [4] | Ki [4] | IC50 [5] | IC50 [6]

CCC[C@@H]1C[C@@H](C(=O)N[C@@H]([C@H]2O[C@H](SC)[C@H](O)[C@@H](O)[C@H]2O)[C@H](C)Cl)N(C)C1 [CLINDAMYCIN]
Not Active: IC50 [1] | IC50 [2] | Ki [2] | IC50 (Melanocortin receptor 5) | IC50 [3] | IC50 [4] | Ki [4] | IC50 [5] | IC50 [6]

C/C=C\c1ccc(O)c(OC)c1 [ISOEUGENOL]
Not Active: IC50 [1] | IC50 [2] | Ki [2] | IC50 (Melanocortin receptor 5) | IC50 [3] | IC50 [4] | Ki [4] | IC50 [5] | IC50 [6]

Cc1cnc(C(=O)NCCc2ccc(S(=O)(=O)NC(=O)NC3CCCCC3)cc2)cn1 [GLIPIZIDE]
Not Active: IC50 [1] | IC50 [2] | Ki [2] | IC50 (Melanocortin receptor 5) | IC50 [3] | IC50 [4] | Ki [4] | IC50 [5] | IC50 [6]

N[C@@H](Cc1ccc(F)cc1)C(=O)O
Not Active: IC50 [1] | IC50 [2] | Ki [2] | IC50 (Melanocortin receptor 5) | IC50 [3] | IC50 [4] | Ki [4] | IC50 [5] | IC50 [6]

OCCN1CCN(CCCN2c3ccccc3Sc3ccc(Cl)cc32)CC1 [PERPHENAZINE]
Not Active: IC50 [1] | IC50 [2] | Ki [2] | IC50 (Melanocortin receptor 5) | IC50 [3] | IC50 [4] | Ki [4] | IC50 [5] | IC50 [6]

CCOC(=O)C1=C(C)NC(C)=C(C(=O)OC)C1c1cccc(Cl)c1Cl (stereo not given) [FELODIPINE]
Not Active: IC50 [1] | IC50 [2] | Ki [2] | IC50 (Melanocortin receptor 5) | IC50 [3] | IC50 [4] | Ki [4] | IC50 [5] | IC50 [6]

C[C@@H]1CC[C@H]2[C@@H](C)C(=O)O[C@@H]3O[C@@]4(C)CC[C@@H]1[C@]32OO4 [ARTEMISININ]
Not Active: IC50 [1] | IC50 [2] | Ki [2] | IC50 (Melanocortin receptor 5) | IC50 [3] | IC50 [4] | Ki [4] | IC50 [5] | IC50 [6]

CN1C(=O)CN=C(c2ccccc2)c2cc(Cl)ccc21 [DIAZEPAM]
Not Active: IC50 [1] | IC50 [2] | Ki [2] | IC50 (Melanocortin receptor 5) | IC50 [3] | IC50 [4] | Ki [4] | IC50 [5] | IC50 [6]
